For orientation: pKd means the Kd on a negative log10 scale, so that one unit is a factor of ten.

Assay [1] has as its target T1, E3 ubiquitin-protein ligase UHRF1 (Xenopus laevis) (UniProt B6CHA3).
T1 sequence (whole entry): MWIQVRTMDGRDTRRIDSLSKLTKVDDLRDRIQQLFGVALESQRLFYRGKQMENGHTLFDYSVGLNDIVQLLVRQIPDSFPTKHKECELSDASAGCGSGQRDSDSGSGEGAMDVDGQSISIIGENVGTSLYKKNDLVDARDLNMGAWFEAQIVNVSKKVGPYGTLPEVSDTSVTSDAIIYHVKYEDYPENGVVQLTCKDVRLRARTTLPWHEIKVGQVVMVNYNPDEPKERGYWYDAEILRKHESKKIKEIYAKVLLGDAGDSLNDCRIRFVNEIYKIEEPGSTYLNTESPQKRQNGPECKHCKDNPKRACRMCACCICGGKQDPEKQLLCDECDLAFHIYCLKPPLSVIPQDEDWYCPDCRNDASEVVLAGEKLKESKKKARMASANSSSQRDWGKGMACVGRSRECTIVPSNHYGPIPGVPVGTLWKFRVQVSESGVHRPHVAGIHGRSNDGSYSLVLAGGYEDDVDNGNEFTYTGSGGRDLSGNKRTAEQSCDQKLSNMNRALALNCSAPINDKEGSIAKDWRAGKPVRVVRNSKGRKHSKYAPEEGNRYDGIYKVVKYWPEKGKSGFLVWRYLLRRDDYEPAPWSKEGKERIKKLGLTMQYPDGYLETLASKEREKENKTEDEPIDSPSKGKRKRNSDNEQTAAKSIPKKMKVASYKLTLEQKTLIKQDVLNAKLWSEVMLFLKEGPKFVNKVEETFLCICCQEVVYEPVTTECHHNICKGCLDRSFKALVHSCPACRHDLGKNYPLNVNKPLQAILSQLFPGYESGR
Nature of the assay: Inhibition of UHRF1 TTD binding with LIG1K126me3 in Xenopus laevis eggs incubated for 1 hr by immunoprecipitation. It is filed as tissue-based. As to conditions: Egg.

Assay [2] deals with T2, E3 ubiquitin-protein ligase UHRF1 (Homo sapiens) (UniProt Q96T88).
T2 sequence (whole entry): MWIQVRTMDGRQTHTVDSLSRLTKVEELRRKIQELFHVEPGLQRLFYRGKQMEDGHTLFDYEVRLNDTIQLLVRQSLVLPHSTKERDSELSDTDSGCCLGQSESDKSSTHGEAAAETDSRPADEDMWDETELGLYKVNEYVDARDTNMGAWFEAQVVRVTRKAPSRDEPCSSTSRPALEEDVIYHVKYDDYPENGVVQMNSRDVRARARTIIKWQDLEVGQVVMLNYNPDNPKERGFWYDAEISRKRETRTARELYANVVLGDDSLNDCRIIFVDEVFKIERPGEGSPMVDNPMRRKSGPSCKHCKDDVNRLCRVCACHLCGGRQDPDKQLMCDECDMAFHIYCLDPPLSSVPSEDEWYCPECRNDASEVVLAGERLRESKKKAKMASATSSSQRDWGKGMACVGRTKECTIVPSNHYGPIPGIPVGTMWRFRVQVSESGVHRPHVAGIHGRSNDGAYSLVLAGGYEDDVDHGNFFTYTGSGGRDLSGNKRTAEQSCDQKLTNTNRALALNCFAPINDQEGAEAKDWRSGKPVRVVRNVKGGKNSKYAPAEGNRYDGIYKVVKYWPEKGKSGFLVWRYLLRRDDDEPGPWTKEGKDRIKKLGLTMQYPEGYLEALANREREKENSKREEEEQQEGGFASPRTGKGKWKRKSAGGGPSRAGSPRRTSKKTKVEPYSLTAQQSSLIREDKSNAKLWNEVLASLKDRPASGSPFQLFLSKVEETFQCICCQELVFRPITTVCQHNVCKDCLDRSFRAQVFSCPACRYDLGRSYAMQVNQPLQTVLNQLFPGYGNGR
Nature of the assay: Binding affinity to UHRF1 TTD (unknown origin) assessed as increase in thermal stability by measuring change in melting temperature by SYPRO orange dye based fluorescence assay.

The target in assay [3] is E3 ubiquitin-protein ligase UHRF1 (Homo sapiens, UniProt Q96T88, Y188A/Y191A). Nature of the assay: Binding affinity to UHRF1 Y188A/Y191A double mutant (unknown origin) assessed as dissociation constant by ITC analysis. (In general: Isothermal titration calorimetry measures the heat released or taken up as one component is titrated into another.)
E3 ubiquitin-protein ligase UHRF1 (Homo sapiens, UniProt Q96T88, Y188A/Y191A), sequence (Q96T88 whole entry Y188A/Y191A): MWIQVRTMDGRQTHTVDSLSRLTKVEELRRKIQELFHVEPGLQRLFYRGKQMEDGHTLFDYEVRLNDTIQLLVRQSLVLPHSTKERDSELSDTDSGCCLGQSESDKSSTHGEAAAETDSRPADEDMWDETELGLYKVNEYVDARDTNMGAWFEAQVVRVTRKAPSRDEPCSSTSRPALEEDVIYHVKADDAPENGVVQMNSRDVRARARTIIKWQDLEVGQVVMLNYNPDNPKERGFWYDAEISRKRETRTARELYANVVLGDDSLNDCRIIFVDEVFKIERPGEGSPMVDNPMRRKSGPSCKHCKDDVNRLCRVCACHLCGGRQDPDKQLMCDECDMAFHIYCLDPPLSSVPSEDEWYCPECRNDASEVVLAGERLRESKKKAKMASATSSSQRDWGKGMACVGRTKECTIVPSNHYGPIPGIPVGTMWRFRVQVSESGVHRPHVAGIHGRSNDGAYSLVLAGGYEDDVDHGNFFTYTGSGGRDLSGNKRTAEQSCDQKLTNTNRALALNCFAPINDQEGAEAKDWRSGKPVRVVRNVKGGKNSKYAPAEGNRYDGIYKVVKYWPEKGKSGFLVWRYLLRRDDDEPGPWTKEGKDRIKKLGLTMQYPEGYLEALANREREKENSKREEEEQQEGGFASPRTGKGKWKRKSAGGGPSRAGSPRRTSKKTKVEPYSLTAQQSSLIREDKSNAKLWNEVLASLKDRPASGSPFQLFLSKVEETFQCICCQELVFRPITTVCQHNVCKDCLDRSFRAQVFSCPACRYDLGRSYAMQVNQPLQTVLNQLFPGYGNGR
In assay [4] the target is T3, E3 ubiquitin-protein ligase UHRF1 (Homo sapiens, UniProt Q96T88).
T3 sequence (Q96T88 whole entry): T2 sequence (whole entry)
Nature of the assay: Binding affinity to UHRF1 TTD (unknown origin) assessed as dissociation constant by ITC analysis.

For assay [5], the target named is E3 ubiquitin-protein ligase UHRF1 (Homo sapiens, UniProt Q96T88). Nature of the assay: Binding affinity to UHRF1 TTD variant loop (unknown origin) assessed as dissociation constant by ITC analysis.
The target of assay [6] is T2, E3 ubiquitin-protein ligase UHRF1 (Homo sapiens). Nature of the assay: Binding affinity to UHRF1 TTD (unknown origin) assessed as compound-protein complex stoichiometry ratio of 1:1 by ITC analysis.
In assay [7] the target is E3 ubiquitin-protein ligase UHRF1 (Homo sapiens, UniProt Q96T88, F278A). Nature of the assay: Binding affinity to UHRF1 F278A mutant (unknown origin) assessed as dissociation constant by ITC analysis.
E3 ubiquitin-protein ligase UHRF1 (Homo sapiens, UniProt Q96T88, F278A), sequence (Q96T88 whole entry F278A): as the sequence (Q96T88 whole entry Y188A/Y191A) above, with A188Y, A191Y, F278A counted along it
In assay [8] the target is T2, E3 ubiquitin-protein ligase UHRF1 (Homo sapiens). Nature of the assay: Binding affinity to UHRF1 TTD (unknown origin) assessed as increase in thermal stability by melting temperature by SYPRO orange dye based fluorescence assay (reference value: 46.5 +/- 0.1 degreeC).
The target is the same in assay [9]. Nature of the assay: Binding affinity to UHRF1 TTD (unknown origin) assessed as change in enthalpy by ITC analysis.
Assay [10] has the same target. Nature of the assay: Displacement of FAM-labeled H3K9me3 from UHRF1 TTD(unknown origin) by fluorescence polarization assay. A general note: Fluorescence polarisation rises when a labelled molecule tumbles more slowly, as on binding a larger partner.
The target is the same in assay [11]. Nature of the assay: Displacement of FAM-labeled LIG1K126me3 from UHRF1 TTD(unknown origin) by fluorescence polarization assay.
Assay [12] deals with E3 ubiquitin-protein ligase UHRF1 (Homo sapiens, UniProt Q96T88, M224A). Nature of the assay: Binding affinity to UHRF1 M224A mutant (unknown origin) assessed as dissociation constant by ITC analysis.
E3 ubiquitin-protein ligase UHRF1 (Homo sapiens, UniProt Q96T88, M224A), sequence (Q96T88 whole entry M224A): as the sequence (Q96T88 whole entry Y188A/Y191A) above, with A188Y, A191Y, M224A counted along it

pKd: −log10 of the molar value. Active and inactive are the calls of the source. The calls are words filed in the database; no cut-off is given here. Where only a bound is given, the exact number is not on record here.

Consider `Cc1cc(C)c(N)cn1`, for which the inhibition result in assay [1] was “Dose-Dependent Effect”. Besides, in [2], the deltaT was 3.1 °C. In addition, the pKd in [3] is 4.49; in [4] it was 4.71; in [5], 4.68; in assay [7], below 3.74; in [12], below 3.95. The outcome in assay [6] was Active. In assay [8], the Tm was 49.6 °C. Also, in assay [9], the deltaH was -8.5 kcal/mol. For the same molecule, the INH in [10] is 249 µM; in assay [11] it was 806 µM.

Source of the values: ChEMBL document CHEMBL4840369, “Structure-based screening combined with computational and biochemical analyses identified the inhibitor targeting the binding of DNA Ligase 1 to UHRF1” (Bioorg Med Chem, 2021).
